These are literature values, as cited in patent US20110086102A1, “DELAYED RELEASE COMPOSITIONS” (Teva Pharmaceutical Industries Ltd., priority 2009, published 2011).

Read-outs that look alike come from different tables or passages of the source.

For `COc1c(C)c2c(c(O)c1C/C=C(\C)CCC(=O)[O-])C(=O)OC2.[Na+]` [Mycophenolate sodium, (E)-6-(4-hydroxy-6-methoxy-7-methyl-3-oxo-1,3-dihydro-isobenzofuran-5-yl)-4-methylhex-4-enoic acid sodium salt], the Solubility entry runs as follows: (0.1N hydrochloric acid) “practically insoluble”; (aqueous media at physiological pH) “highly soluble”.
